According to US11788044B2, “Rheologically biomimetic fluid surrogate” (EMULATE, INC., priority 2017, dated 2023):

Assays:
[1] = tested on: neutrophil recruitment to the endothelium; assay: Neutrophil recruitment in Airway-on-Chip emulating acute asthma exacerbation (HRV-16 infection, IL-13 stimulation); assay type: cell-based, human; details: 10 microM; three stimulation conditions (HRV-16, IL-13, HRV-16+IL-13); chips flipped
Excerpt: As shown here, exemplary embodiments of an inflamed Airway-on-Chip emulating acute asthma exacerbation by combining Rhinovirus infection with IL-13 stimulation in the presence of an exemplary immuno-modulatory compound. In some embodiments, neutrophil recruitment following exacerbation with HRV can be reduced by an exemplary CXCR2 antagonist MK-7123, however these experiments were done by flipping chips. […] HRV-16 is represented as small green dots in the upper channel while neutrophil cells (also described as polymorphonuclear leukocytes (PMN)) are represented as large purple spots in the lower channel. […] Treatments included HRV-16 alone infected cells, IL-13 alone treated cells, HRV-16 and (+) IL-13 treated cells, HRV-16+CXCR2in (inhibitor) treated cells, and HRV-16+IL-13+CXCR2in. Non-stimulated chips are showing limited neutrophil recruitment while HRV infected and IL-13-treated chips show increased neutrophil recruitment. IL-13+HRV induce an additive increase in neutrophil recruitment, while treatment with a CXCR2 antagonist. […] Quantification of neutrophil recruitment (**p<0.01; ****p<0.001).
HRV-16 is represented as small green dots in the upper channel while neutrophil cells (also described as polymorphonuclear leukocytes (PMN)) are represented as large purple spots in the lower channel. […] Quantification of neutrophil recruitment (**p<0.01; ****p<0.001).

[2] = tested on: goblet cells hyperplasia, pro-inflammatory cytokines, cilia beating frequency; assay: Small-airway-on-a-chip perfused with IL-13 (Th2 microenvironment), airway remodeling phenotype; assay type: cell-based, human; details: IL-13 through the vascular channel

| Structure (SMILES) | neutrophil recruitment [1] | IL-13 induced airway remodeling phenotype [2] |
| --- | --- | --- |
| CC[C@@H](Nc1c(Nc2cccc(C(=O)N(C)C)c2O)c(=O)c1=O)c1ccc(C)o1 [MK-7123] | significantly reduced neutrophil recruitment | – |
| C[C@@H]1CCN(C(=O)CC#N)C[C@@H]1N(C)c1ncnc2[nH]ccc12 [Tofacitinib] | – | suppressed |
